# Read-outs that look alike come from different tables or passages of the source.
# System: HepG2 cells
# Settings: 24 hours; for Cell viability: vs 0% ethanol
# Method: A HepG2 cell line, which is human liver cancer-derived cells, was obtained from Riken Bioresource Research Center (RIKEN BRC) and cultured in DMEM containing 10% fetal bovine serum (FBS) (Sigma-Aldrich, F7524) and 1% penicillin-streptomycin (manufactured by FUJIFILM Wako Pure Chemical Corporation, trade name: 168-23191) under conditions of 37° C. and 5% CO2.
smiles,measurement,setting,value
"CCO [Ethanol, ethanol]",Viable cell count,"HepG2, ethanol 0.25%",9.48 × 10^4 cells/well
same,Cell viability,"HepG2, ethanol 0.25%",96.7%
same,Viable cell count,"HepG2, ethanol 0.5%",9.37 × 10^4 cells/well
same,Cell viability,"HepG2, ethanol 0.5%",95.6%
same,Viable cell count,"HepG2, ethanol 1%",8.22 × 10^4 cells/well
same,Cell viability,"HepG2, ethanol 1%",83.8%
same,Viable cell count,"HepG2, ethanol 2%",6.05 × 10^4 cells/well
same,Cell viability,"HepG2, ethanol 2%",61.7%
same,Viable cell count,"HepG2, ethanol 4%",4.87 × 10^4 cells/well
same,Cell viability,"HepG2, ethanol 4%",49.7%
same,Viable cell count,"HepG2, ethanol 8%",0.35 × 10^4 cells/well
same,Cell viability,"HepG2, ethanol 8%",3.6%
